In brackets after ≈: the same amount, converted by molar mass. *1 amine or outer side, *2 acyl side, *3 side chain or, on linkers, in order; H or OH if unused. Where a SMILES comes first, the peptide text is derived from it. [ ]: non-standard residue; d: D form. The star is where a group is joined. X2 = CCCCCC[C@@H](OC[C@@H](C)N[*:1])[C@@H](C)C(=O)[*:2]; X9 = CCCCCC(C)[C@@H](OC[C@@H](C)N[*:1])C(C)C(=O)[*:2]; X21 = C[C@H](CO[C@@H]1CCCCCC[C@H]1C(=O)[*:2])N[*:1]; Cyclobutyl(trans-3-NH2) = N[C@H]1C[C@H](*)C1; Gly(cHept) = N[C@H](C(=O)O)C1CCCCCC1; aThr = C[C@H](O)[C@H](N)C(=O)O; NMeL = CN[C@@H](CC(C)C)C(=O)O; Chg = N[C@H](C(=O)O)C1CCCCC1; NMeNva = CCC[C@H](NC)C(=O)O; Dap = NC[C@H](N)C(=O)O; Propyl(3-NH2) = NCCC*; X10 = NCCCC*
Tested on: Escherichia coli (E. coli) strain CFT073 ATCC 700928
Assay type: cell-based
Conditions: ATCC 700928, 22 h
Outline: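 Broth microdilution MIC per CLSI M07-A8 in cation-adjusted Mueller Hinton II broth with 0.002% Tween-80. Ten-point 2-fold series topped at 64, 4, 0.5 or 0.13 μg/mL depending on protocol. Final inoculum OD600 0.0005, incubated 22 h at 35 °C.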

| Structure (SMILES) | MIC |
| --- | --- |
| CCCCCC[C@H]1OC[C@@H](C)NC(=O)[C@H](CNCCN)NC(=O)[C@H](CN)NC(=O)[C@H](C2CCCCCC2)NC(=O)[C@H](CC(C)C)N(C)C(=O)[C@@H]1C [Example 161, (3R,6S,9S,12S,15S,18R,19R)-6-[(2-Aminoethylamino)methyl]-9-(aminomethyl)-12-cycloheptyl-19-hexyl-15-isobutyl-3,16,18-trimethyl-1-oxa-4,7,10,13,16-pentazacyclononadecane-5,8,11,14,17-pentone] | 6.3 µM (≈ 4.56 µg/mL) |
| CCCCCCCCCC[C@H]1OC(=O)CNC(=O)[C@H](COCCOCCN)NC(=O)[C@H](CO)NC(=O)[C@H]([C@@H](C)CC)NC(=O)[C@H](CC(C)C)N(C)C(=O)[C@@H]1C [Example 92, (6S,9S,12S,15S,18R,19R)-6-[2-(2-aminoethoxy)ethoxymethyl]-19-decyl-9-(hydroxymethyl)-15-isobutyl-16,18-dimethyl-12-[(1S)-1-methylpropyl]-1-oxa-4,7,10,13,16-pentazacyclononadecane-2,5,8,11,14,17-hexone] | 19 µM (≈ 14.9 µg/mL) |
| CCCCCC[C@H]1OC[C@@H](C)NC(=O)[C@H](COCCCN)NC(=O)[C@H](CN)NC(=O)[C@H](C2CCCCC2)NC(=O)[C@H](CC(C)C)N(C)C(=O)[C@@H]1C [Example 131, (3R,6S,9S,12S,15S,18R,19R)-9-(aminomethyl)-6-(3-aminopropoxymethyl)-12-cyclohexyl-19-hexyl-15-isobutyl-3,16,18-trimethyl-1-oxa-4,7,10,13,16-pentazacyclononadecane-5,8,11,14,17-pentone] (cyclo([Chg][Dap]S(Propyl(3-NH2))[X2][NMeL])) | 11 µM (≈ 7.96 µg/mL) |
| CCCCCC(C)[C@H]1OC[C@@H](C)NC(=O)[C@H]([C@H](C)O)NC(=O)[C@H](CN)NC(=O)[C@H](C2CCCCC2)NC(=O)[C@H](CC(C)C)N(C)C(=O)C1C (stereo partly drawn) [Example 153, (3R,6S,9S,12S,15S,18R,19R)-9-(Aminomethyl)-12-cyclohexyl-19-(heptan-2-yl)-6-((S)-1-hydroxyethyl)-15-isobutyl-3,16,18-trimethyl-1-oxa-4,7,10,13,16-pentaazacyclononadecane-5,8,11,14,17-pentaone] (cyclo([Chg][Dap][aThr][X9][NMeL])) | 1.6 µM (≈ 1.11 µg/mL) |
| CC(C)C[C@H]1C(=O)N[C@@H](C2CCCCC2)C(=O)N[C@@H](CN)C(=O)N[C@@H]([C@H](C)O)C(=O)NCC(=O)O[C@H](CCCCC(F)CF)[C@@H](C)C(=O)N1C (stereo partly drawn) [Example 117, (6S,9S,12S,15S,18R,19R)-9-(aminomethyl)-12-cyclohexyl-19-(5,6-difluorohexyl)-15-isobutyl-16,18-dimethyl-6-[(1S)-1-hydroxyethyl]-1-oxa-4,7,10,13,16-pentazacyclononadecane-2,5,8,11,14,17-hexone] | 25 µM (≈ 17.9 µg/mL) |
| CCCCCC[C@H]1OC[C@@H](C)NC(=O)[C@H](COCCCCN)NC(=O)[C@H](CN)NC(=O)[C@H](C2CCCCCC2)NC(=O)[C@H](CCC)N(C)C(=O)[C@@H]1C [Example 152, (3R,6S,9S,12S,15S,18R,19R)-6-((4-Aminobutoxy)methyl)-9-(aminomethyl)-12-cycloheptyl-19-hexyl-3,16,18-trimethyl-15-propyl-1-oxa-4,7,10,13,16-pentaazacyclononadecane-5,8,11,14,17-pentaone] (cyclo([Dap]S(X10)[X2][NMeNva][Gly(cHept)])) | 6.3 µM (≈ 4.65 µg/mL) |
| CCCCCC[C@H]1OC[C@@H](C)NC(=O)[C@H](CNCCO)NC(=O)[C@H](CN)NC(=O)[C@H](C2CCCCCC2)NC(=O)[C@H](CC(C)C)N(C)C(=O)[C@@H]1C [Example 169, (3R,6S,9S,12S,15S,18R,19R)-9-(Aminomethyl)-12-cycloheptyl-19-hexyl-6-(((2-hydroxyethyl)amino)methyl)-15-isobutyl-3,16,18-trimethyl-1-oxa-4,7,10,13,16-pentaazacyclononadecane-5,8,11,14,17-pentaone] | 6.3 µM (≈ 4.56 µg/mL) |
| CCCCCC[C@H]1OC(=O)CNC(=O)[C@H]([C@H](C)O)NC(=O)[C@H]([C@H](C)N)NC(=O)[C@H](C2CCCCC2)NC(=O)[C@H](CC(C)C)N(C)C(=O)[C@@H]1C [Example 125, (6S,9S,12S,15S,18R,19R)-12-cyclohexyl-19-hexyl-15-isobutyl-16,18-dimethyl-9-[(1S)-1-aminoethyl]-6-[(1S)-1-hydroxyetltyl]-1-oxa-4,7,10,13,16-pentazacyclononadecane-2,5,8,11,14,17-hexone] | 3.2 µM (≈ 2.22 µg/mL) |
| CCCCCC[C@H]1OC(=O)CNC(=O)[C@H]([C@H](C)O)NC(=O)[C@H](CN)NC(=O)[C@H](C2CCCCC2)NC(=O)[C@H](CC)N(C)C(=O)[C@@H]1C [Example 111, (6S,9S,12S,15S,18R,19R)-9-(aminomethyl)-12-cyclohexyl-15-ethyl-19-hexyl-16,18-dimethyl-6-[(1S)-1-hydroxyethyl]-1-oxa-4,7,10,13,16-pentazacyclononadecane-2,5,8,11,14,17-hexone] | 8.8 µM (≈ 5.74 µg/mL) |
| CCCCCC[C@H]1OC[C@@H](C)NC(=O)[C@H](CO[C@H]2C[C@H](N)C2)NC(=O)[C@H](CN)NC(=O)[C@H](C2CCCCCC2)NC(=O)[C@H](CCC)N(C)C(=O)[C@@H]1C [Example 146, (3R,6S,9S,12S,15S,18R,19R)-6-[(3-aminocyclobutoxy)methyl]-9-(aminomethyl)-12-cycloheptyl-19-hexyl-3,16,18-trimethyl-15-propyl-1-oxa-4,7,10,13,16-pentazacyclononadecane-5,8,11,14,17-pentone] (cyclo([Dap]S(Cyclobutyl(trans-3-NH2))[X2][NMeNva][Gly(cHept)])) | 6.3 µM (≈ 4.64 µg/mL) |
| CCCCCC[C@H]1OC(=O)CNC(=O)[C@H](CNC(=O)CN)NC(=O)[C@H](CN)NC(=O)[C@H](C2CCCCC2)NC(=O)[C@H](CC(C)C)N(C)C(=O)[C@@H]1C [Example 139, 2-amino-N-[[(6S,9S,12S,15S,18R,19R)-9-(aminomethyl)-12-cyclohexyl-19-hexyl-15-isobutyl-16,18-dimethyl-2,5,8,11,14,17-hexaoxo-1-oxa-4,7,10,13,16-pentazacyclononadec-6-yl]methyl]acetamide] | 18 µM (≈ 13 µg/mL) |
| CCCCCCCCCC[C@H]1OC(=O)CNC(=O)[C@H](Cc2c[nH]cn2)NC(=O)[C@H](CO)NC(=O)[C@H]([C@@H](C)CC)NC(=O)[C@H](CC(C)C)N(C)C(=O)[C@@H]1C [Example 29, (6S,9S,12S,15S,18R,19R)-19-decyl-9-(hydroxymethyl)-6-(1H-imidazol-4-ylmethyl)-15-isobutyl-16,18-dimethyl-12-[(1S)-1-methylpropyl]-1-oxa-4,7,10,13,16-pentazacyclononadecane-2,5,8,11,14,17-hexone] | 13 µM (≈ 9.72 µg/mL) |
| CCCCCC[C@H]1OC(=O)CNC(=O)[C@H]([C@H](C)O)NC(=O)[C@H](CO)NC(=O)[C@H](C2CCCCC2)NC(=O)[C@H](CCC)N(C)C(=O)[C@@H]1C [Example 132, (6S,9S,12S,15S,18R,19R)-12-cyclohexyl-19-hexyl-9-(hydroxymethyl)-16,18-dimethyl-15-propyl-6-[(1S)-1-hydroxyethyl]-1-oxa-4,7,10,13,16-pentazacyclononadecane-2,5,8,11,14,17-hexone] | 6.1 µM (≈ 4.07 µg/mL) |
| CCCCCC(C)[C@H]1OC(=O)CNC(=O)[C@H]([C@H](C)O)NC(=O)[C@H](CN)NC(=O)[C@H](C2CCCCC2)NC(=O)[C@H](CC(C)C)N(C)C(=O)[C@@H]1C (stereo partly drawn) [Example 126, (6S,9S,12S,15S,18R,19R)-9-(aminomethyl)-12-cyclohexyl-15-isobutyl-16,18-dimethyl-19-(1-methylhexyl)-6-[(1S)-1-hydroxyethyl]-1-oxa-4,7,10,13,16-pentazacyclononadecane-2,5,8,11,14,17-hexone] | 3.1 µM (≈ 2.15 µg/mL) |
| CCCCCCCCCC[C@H]1OC(=O)CNC(=O)[C@H](CCO)NC(=O)[C@H](CN)NC(=O)[C@H]([C@H](C)CC)NC(=O)[C@H](CC(C)C)N(C)C(=O)[C@@H]1C [Example 10, (6S,9S,12S,15S,18R,19R)-9-(aminomethyl)-19-decyl-6-(2-hydroxyethyl)-15-isobutyl-16,18-dimethyl-12-[(1R)-1-methylpropyl]-1-oxa-4,7,10,13,16-pentazacyclononadecane-2,5,8,11,14,17-hexone] | 6.3 µM (≈ 4.48 µg/mL) |
| CCC[C@H]1C(=O)N[C@@H](C2CCCCCC2)C(=O)N[C@@H](CN)C(=O)N[C@@H]([C@H](C)O)C(=O)NCC(=O)O[C@H](CCC2CC3CCC2C3)[C@@H](C)C(=O)N1C (stereo partly drawn) [Example 129, (6S,9S,12S,15S,18R,19R)-9-(aminomethyl)-12-cycloheptyl-16,18-dimethyl-19-(2-norbornan-2-ylethyl)-15-propyl-6-[(1S)-1-hydroxyethyl]-1-oxa-4,7,10,13,16-pentazacyclononadecane-2,5,8,11,14,17-hexone] | 0.66 µM (≈ 0.474 µg/mL) |
| CCCCCC[C@H]1OC(=O)CNC(=O)[C@H]([C@H](C)O)NC(=O)[C@H](CN)NC(=O)[C@H](Cc2ccccc2)NC(=O)[C@H](CC(C)C)N(C)C(=O)[C@@H]1C [Example 91, (6S,9S,12S,15S,18R,19R)-9-(aminomethyl)-12-benzyl-19-hexyl-15-isobutyl-16,18-dimethyl-6-[(1S)-1-hydroxyethyl]-1-oxa-4,7,10,13,16-pentazacyclononadecane-2,5,8,11,14,17-hexone] | 50 µM (≈ 34.4 µg/mL) |
| CCC[C@H]1C(=O)N[C@@H](C2CCCCCC2)C(=O)N[C@@H](CN)C(=O)N[C@@H](CO[C@H]2C[C@H](N)C2)C(=O)NCC(=O)O[C@H](CCC2CC3CCC2C3)[C@@H](C)C(=O)N1C (stereo partly drawn) [Example 137, (6S,9S,12S,15S,18R,19R)-6-[(3-aminocyclobutoxy)methyl]-9-(aminomethyl)-12-cycloheptyl-16,18-dimethyl-19-(2-norbornan-2-ylethyl)-15-propyl-1-oxa-4,7,10,13,16-pentazacyclononadecane-2,5,8,11,14,17-hexone] | 0.78 µM (≈ 0.604 µg/mL) |
| CCC[C@H]1C(=O)N[C@@H](C2CCCCC2)C(=O)N[C@@H](CN)C(=O)N[C@@H]([C@H](C)O)C(=O)N[C@H](C)CO[C@@H]2CCCCCC[C@H]2C(=O)N1C [Example 86, (3R,6S,9S,12S,15S,17aR,23aR)-9-(Aminomethyl)-12-cyclohexyl-6-((S)-1-hydroxyethyl)-3,16-dimethyl-15-propyloctadecahydrocycloocta[r][1]oxa[4,7,10,13,16]pentaazacyclononadecine-5,8,11,14,17(2H)-pentaone] (cyclo([Chg][Dap][aThr][X21][NMeNva])) | 50 µM (≈ 32.5 µg/mL) |

— US11279735B2, “Cyclic peptide antibiotics” (priority 2017, dated 2022)
